Laboratory results reported in patent publication US12590062B2, “PD-1/PD-L1 inhibitors” (Gilead Sciences, Inc., priority 2017, dated 2026).

What was measured:
PD-1/PD-L1 interaction = target: T1, PD-1/PD-L1 interaction (Homo sapiens, UniProt Q9NZQ7); experiment: PD-1/PD-L1 NFAT reporter co-culture assay; assay type: cell-based; details: Jurkat PD-1 NFAT-luciferase cells co-cultured with aAPC-PD-L1 CHO cells, 6 hrs at 37° C.; read-out: EC50 NFAT Luciferase
T1 construct: expressed in transfected cells; host or cells: CHO cells (aAPC-PD-L1) co-cultured with Jurkat cells overexpressing PD-1 and an NFAT-luciferase reporter
T1 sequence (Q9NZQ7 19-290): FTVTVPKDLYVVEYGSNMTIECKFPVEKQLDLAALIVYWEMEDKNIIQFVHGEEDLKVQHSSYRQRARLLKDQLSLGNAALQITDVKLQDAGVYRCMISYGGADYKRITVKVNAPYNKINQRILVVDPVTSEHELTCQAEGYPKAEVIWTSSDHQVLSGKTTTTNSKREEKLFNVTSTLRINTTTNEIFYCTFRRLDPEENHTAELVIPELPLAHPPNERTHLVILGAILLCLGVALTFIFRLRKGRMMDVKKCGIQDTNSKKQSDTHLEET
In short: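 Compounds are scored by restoration of NFAT-luciferase signal in PD-1-expressing Jurkat cells cultured 6 h at 37 °C on CHO cells presenting anti-CD3 and PD-L1; EC50 values derive from four-parameter curve fitting.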

PD-1/PD-L1 = PD-1/PD-L1 (Homo sapiens, UniProt Q9NZQ7); experiment: PD-1/PD-L1 biochemical protein-protein interaction assay (ALPHA); assay type: binding; details: 0.3 nM His tagged PD-L1, 2.5 nM biotinylated Fc-PD-1, 60 minutes at 25° C., read-out: IC50 PD-L1-PD-1 Alpha IC50-mono PD-L1-fcP-D1
Chain of PD-1/PD-L1 (Q9NZQ7 19-238 limits assumed): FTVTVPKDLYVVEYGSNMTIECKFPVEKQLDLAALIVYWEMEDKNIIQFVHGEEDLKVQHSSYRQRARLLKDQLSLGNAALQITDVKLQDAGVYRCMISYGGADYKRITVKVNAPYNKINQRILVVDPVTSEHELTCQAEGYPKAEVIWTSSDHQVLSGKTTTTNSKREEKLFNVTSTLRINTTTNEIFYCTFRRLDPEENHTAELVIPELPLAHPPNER
In short: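 Final concentrations 0.3 nM His-tagged PD-L1 and 2.5 nM biotinylated Fc-PD-1 (extracellular domains) were reacted with compound for 60 min at 25° C in pH 7.4 Hepes/NaCl/EDTA/Tween/BSA buffer. Binding was then detected by ALPHA beads, and IC50 values were taken from four-parameter curve fitting.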

PD-L1 = target: T2, PD-L1 (Homo sapiens, UniProt Q9NZQ7); experiment: PD-L1/PD-L1 dimerization biochemical protein-protein interaction assay (ALPHA); assay type: binding; details: compound-induced PD-L1 dimerization, head prints '1 nM' (0.5 nM His-tagged PD-L1 and 0.5 nM FLAG-tagged PD-L1), read-out: AC50 PDL1 Dimer Alpha 1 nM
T2 construct: determine if they can specifically dimerize the extracellular domains of PD-L1
T2 sequence (Q9NZQ7 19-238 limits assumed): as above
T2 sequence (Q9NZQ7 19-238 limits assumed): as above
In short: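 ALPHA proximity assay of compound-induced dimerization of 0.5 nM His-tagged and 0.5 nM FLAG-tagged PD-L1 extracellular domains in Hepes pH 7.4 buffer, 2 h at 25 °C. Anti-His acceptor then anti-FLAG donor beads, 60 min each; AC50 from four-parameter fit.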

Row | Compound | EC50 (PD-1/PD-L1 interaction) [nM] | IC50 (PD-1/PD-L1) [nM] | AC50 (PD-L1) [nM]
1 | COc1nc(-c2cccc(-c3cccc(COc4nc(OCc5cncc(C#N)c5)c(CNC[C@@H]5CCC(=O)N5)cc4Br)c3Cl)c2Cl)ccc1C1=NCCN1 [Example 556] | 86 | 0.194 | 37.7
2 | Cc1c(COc2cc(OCc3cncc(C#N)c3)c(CN[C@@](C)(CO)C(=O)O)cc2Cl)cccc1-c1cccc(Nc2nccc3cc(CNCCO)cnc23)c1C [Example 557] | 135 | 0.201 | 137
3 | COc1nc(-c2cccc(-c3cccc(COc4nc(OCc5cncc(C#N)c5)c(CNC[C@@H](O)CC(=O)O)cc4Br)c3Cl)c2Cl)ccc1C1=NCCN1 [Example 558] | 51 | 0.065 | 33.6
4 | COc1nc(-c2cccc(-c3cccc(COc4nc(OCc5cncc(C#N)c5)c(CN[C@@](C)(CO)C(=O)O)cc4Br)c3Cl)c2Cl)ccc1C1=NCCN1 [Example 559] | 53 | 0.064 | 18.7
5 | N#Cc1cncc(COc2nc(OCc3cccc(-c4cccc(-c5ccc(OCCNCCO)cc5)c4Cl)c3Cl)c(Cl)cc2CN2C[C@@H](O)C[C@H]2C(=O)O)c1 [Example 560] | 163 | 0.135 | 77.8
6 | N#Cc1cncc(COc2nc(OCc3cccc(-c4cccc(-c5ccc(OCCNCCO)cc5)c4Cl)c3Cl)c(Cl)cc2CNC[C@@H](O)CC(=O)O)c1 [Example 561] | 146 | 0.531 | 193
7 | COc1nc(OCc2cccc(-c3cccc(COc4nc(OC)c(CNC[C@@H](O)CC(=O)O)cc4Br)c3C#N)c2Cl)c(Br)cc1CNC[C@@H](O)CC(=O)O [Example 562] | 162 | 0.102 | 126
8 | N#Cc1cc(C#N)cc(COc2nc(OCc3cccc(-c4cccc(-c5ccc(OCCN6CC7(CCC(=O)N7)C6)cc5)c4Cl)c3Cl)c(Cl)cc2CNC[C@@H](O)CC(=O)O)c1 [Example 565] | 112 | 0.259 | 73.4
9 | C[C@@](CO)(NCc1cc(Cl)c(OCc2cccc(-c3cccc(-c4ccc(OCCN5CC6(CCC(=O)N6)C5)cc4)c3Cl)c2Cl)nc1OCc1cc(C#N)cc(C#N)c1)C(=O)O [Example 566] | 86 | 0.11 | 39.4
10 | N#Cc1cc(C#N)cc(COc2nc(OCc3cccc(-c4cccc(-c5ccc(CN6CC7(CCC(=O)N7)C6)cc5)c4Cl)c3Cl)c(Cl)cc2CNC[C@@H](O)CC(=O)O)c1 [Example 567] | 85 | 0.327 | 68.7
11 | COc1nc(-c2cccc(-c3cccc(COc4nc(OCc5cc(C#N)cc(C#N)c5)c(CNC[C@@H](O)CC(=O)O)cc4Cl)c3Cl)c2Cl)ccc1CNC[C@@H]1CCC(=O)N1 [Example 568] | 65 | 0.064 | 44.3
12 | Cc1c(COc2cc(OCc3cncc(C#N)c3)c(CNC[C@@H](O)CC(=O)O)cc2Cl)cccc1-c1cccc(-c2ccc3c(CNC[C@@H](O)CC(=O)O)ccnc3c2)c1C [Example 569] | 74 | 0.085 | 128
13 | Cc1c(COc2cc(OCc3cncc(C#N)c3)c(CN[C@@](C)(CO)C(=O)O)cc2Cl)cccc1-c1cccc(-c2ccc(CNCCCS(N)(=O)=O)cc2)c1C [Example 570] | 115 | 0.092 | 56.5
14 | Cc1c(COc2cc(OCc3cncc(C#N)c3)c(CN[C@@](C)(CO)C(=O)O)cc2Cl)cccc1-c1cccc(-c2ccc(CNCCS(C)(=O)=O)cc2)c1C [Example 571] | 126 | 0.091 | 156
15 | Cc1c(COc2cc(OCc3cncc(C#N)c3)c(CNC[C@@H](O)CC(=O)O)cc2Cl)cccc1-c1cccc(-c2ccc(CN[C@H]3CCCNC3=O)cc2)c1C [Example 572] | 129 | 0.431 | 453
16 | Cc1c(COc2cc(OCc3cncc(C#N)c3)c(CN[C@@](C)(CO)C(=O)O)cc2Cl)cccc1-c1cccc(-c2ccc(CN[C@H]3CCCNC3=O)cc2)c1C [Example 573] | 120 | 0.154 | 215
17 | Cc1c(COc2cc(OCc3cncc(C#N)c3)c(CNC[C@@H](O)CC(=O)O)cc2Cl)cccc1-c1cccc(-c2ccc(CNC[C@@H]3CCC(=O)N3)cc2)c1C [Example 574] | 72 | 0.071 | 56
18 | Cc1c(COc2cc(OCc3cncc(C#N)c3)c(CN[C@@](C)(CO)C(=O)O)cc2Cl)cccc1-c1cccc(-c2ccc(CNC[C@@H]3CCC(=O)N3)cc2)c1C [Example 575] | 34 | 0.073 | 40.6

Row | Compound | EC50 (PD-1/PD-L1 interaction) [nM] | IC50 (PD-1/PD-L1) [nM] | AC50 (PD-L1) [nM]
19 | N#Cc1cc(C#N)cc(COc2nc(OCc3cccc(-c4cccc(-c5ccc(CNC[C@@H]6CCC(=O)N6)cc5)c4Cl)c3Cl)c(Cl)cc2CNC[C@@H](O)CC(=O)O)c1 [Example 576] | 32 | 0.169 | 24.3
20 | C[C@@](CO)(NCc1cc(Cl)c(OCc2cccc(-c3cccc(-c4ccc(CNC[C@@H]5CCC(=O)N5)cc4)c3Cl)c2Cl)nc1OCc1cc(C#N)cc(C#N)c1)C(=O)O [Example 577] | 16 | 0.064 | 9.73
21 | CC(C)(NCc1cc(Cl)c(OCc2cccc(-c3cccc(-c4ccc(OCCNCCO)cc4)c3Cl)c2Cl)nc1OCc1cc(C#N)cc(C#N)c1)C(=O)O [Example 578] | 135 | 0.111 | 37.2
22 | Cc1c(COc2cc(OCc3cncc(C#N)c3)c(CN[C@@](C)(CO)C(=O)O)cc2Cl)cccc1-c1cccc(-c2ccc(CN3CC4(CCC(=O)N4)C3)cc2)c1C [Example 579] | 191 | 0.064 | 34.8
23 | Cc1c(COc2cc(OCc3cncc(C#N)c3)c(CN[C@@](C)(CO)C(=O)O)cc2Cl)cccc1-c1cccc(-c2ccc(CNCCn3ccnn3)cc2)c1C [Example 580] | 200 | 0.215 | 231
24 | Cc1c(COc2nc(OCc3cncc(C#N)c3)c(CN[C@@](C)(CO)C(=O)O)cc2Cl)cccc1-c1cccc(-c2ccc(OCCNCCO)cc2)c1C [Example 581] | 158 | 0.182 | 60.3
25 | Cc1c(COc2cc(OCc3cncc(C#N)c3)c(CN3CC[C@@H](O)C3)cc2Cl)cccc1-c1cccc(-c2ccc(CN3CC(CC(=O)O)C3)cc2)c1C [Example 582] | 147 | 1.3 | 347
26 | Cc1c(COc2cc(OCc3cncc(C#N)c3)c(CN[C@@H]3CCC[C@@H]3O)cc2Cl)cccc1-c1cccc(-c2ccc3c(c2)CCC3N2CC3(CC(C(=O)O)C3)C2)c1C (stereo partly drawn) [Example 583] | 180 | 0.296 | 38.3
27 | Cc1c(COc2cc(OCc3cncc(C#N)c3)c(CN[C@@H]3CCC[C@@H]3O)cc2Cl)cccc1-c1cccc(-c2ccc3c(c2)CCC3N2CC[C@H](CC(=O)O)C2)c1C (stereo partly drawn) [Example 584] | 149 | 0.124 | 38.6
28 | CC(=O)N1CC2(CN(Cc3cn(C)c4nc(-c5cccc(-c6cccc(-c7cnc8c(CN9CC%10(C9)CN(C(C)=O)C%10)cn(C)c8n7)c6Cl)c5Cl)cnc34)C2)C1 [Example 587] | 45 | 0.145 | 324
29 | Cn1cc(CN2CC3(CNC(=O)C3)C2)c2ncc(-c3cccc(-c4cccc(-c5cnc6c(CN7CC8(CNC(=O)C8)C7)cn(C)c6n5)c4Cl)c3Cl)nc21 [Example 588] | 50 | 0.081 | 206
30 | Cn1cc(CN2CC3(CCC(=O)N3)C2)c2ncc(-c3cccc(-c4cccc(-c5cnc6c(CN7CC8(CCC(=O)N8)C7)cn(C)c6n5)c4Cl)c3Cl)nc21 [Example 589] | 89 | 0.163 | 164
31 | COc1nc(-c2cccc(-c3cccc(COc4nc(OC)c(CNC[C@@H](O)CC(=O)O)cc4Cl)c3Cl)c2Cl)ccc1CNC[C@@H]1CCC(=O)N1 [Example 590] | 140 | 0.186 | 134
32 | COc1nc(O[C@H]2CCc3c(-c4cccc(-c5cc(C)c(CNC[C@@H]6CCC(=O)N6)c(OC)n5)c4Cl)cccc32)c(Cl)cc1CNC[C@@H]1CCC(=O)N1 [Example 591] | 20 | 0.064 | 22.7
33 | Cc1c(COc2cc(OCc3cncc(C#N)c3)c(CNC[C@@H](O)CC(=O)O)cc2Cl)cccc1-c1cccc(-c2nc3ccc(CNC[C@@H](O)CC(=O)O)cc3o2)c1C [Example 592] | 172 | 0.095 | 107
34 | Cc1c(COc2cc(OCc3cncc(C#N)c3)c(CNC[C@@H](O)CC(=O)O)cc2Cl)cccc1-c1cccc(-c2nc3cc(CNC[C@@H](O)CC(=O)O)ccc3o2)c1C [Example 593] | 113 | 0.064 | 124
35 | Cc1c(COc2cc(OCc3cncc(C#N)c3)c(CNC[C@@H](O)CC(=O)O)cc2Cl)cccc1-c1cccc(-c2nc3ccc(CNC[C@@H](O)CC(=O)O)cn3n2)c1C [Example 595] | 65 | 0.064 | 77
